Series [1] addresses T1, Ba/F3 JAK3 (Homo sapiens, UniProt P52333).
T1 construct: candidate: TEL (ETV6) N-terminal oligomerisation domain
T1 sequence (P52333 1-1124): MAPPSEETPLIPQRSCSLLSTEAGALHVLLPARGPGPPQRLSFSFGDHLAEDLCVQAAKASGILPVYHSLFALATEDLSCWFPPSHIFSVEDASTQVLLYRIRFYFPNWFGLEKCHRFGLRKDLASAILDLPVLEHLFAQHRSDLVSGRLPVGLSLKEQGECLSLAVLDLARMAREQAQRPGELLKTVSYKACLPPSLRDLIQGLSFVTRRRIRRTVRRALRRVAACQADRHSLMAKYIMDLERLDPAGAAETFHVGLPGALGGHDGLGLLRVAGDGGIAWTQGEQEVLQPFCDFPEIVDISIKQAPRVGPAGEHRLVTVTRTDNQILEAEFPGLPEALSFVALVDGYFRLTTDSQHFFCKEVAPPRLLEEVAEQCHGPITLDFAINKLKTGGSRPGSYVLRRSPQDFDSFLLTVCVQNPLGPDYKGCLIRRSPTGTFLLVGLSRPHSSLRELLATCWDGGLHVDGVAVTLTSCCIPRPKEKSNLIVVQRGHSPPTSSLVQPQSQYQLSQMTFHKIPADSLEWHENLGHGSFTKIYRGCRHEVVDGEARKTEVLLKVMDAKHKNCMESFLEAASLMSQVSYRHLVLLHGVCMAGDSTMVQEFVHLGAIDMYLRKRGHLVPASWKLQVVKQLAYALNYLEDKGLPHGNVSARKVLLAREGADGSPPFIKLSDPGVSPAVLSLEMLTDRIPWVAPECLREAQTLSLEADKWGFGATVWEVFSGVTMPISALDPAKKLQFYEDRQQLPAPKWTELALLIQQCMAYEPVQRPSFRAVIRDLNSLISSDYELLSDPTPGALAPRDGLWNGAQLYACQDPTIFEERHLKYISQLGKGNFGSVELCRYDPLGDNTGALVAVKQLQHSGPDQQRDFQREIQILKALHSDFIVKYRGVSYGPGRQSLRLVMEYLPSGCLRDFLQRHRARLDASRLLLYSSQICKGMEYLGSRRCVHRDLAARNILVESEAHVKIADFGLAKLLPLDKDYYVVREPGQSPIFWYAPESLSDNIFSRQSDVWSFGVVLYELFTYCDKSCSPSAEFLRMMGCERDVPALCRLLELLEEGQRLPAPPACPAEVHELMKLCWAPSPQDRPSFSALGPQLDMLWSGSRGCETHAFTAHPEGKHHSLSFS
The series is described as follows: CellTiter-Glo cell proliferation, Ba/F3 JAK3. In kind it is cell-based, murine. Conditions: 72 hours, read-out: Ba/F3 IC50 JAK3. (In ATP-based viability assays light output follows the ATP content of the culture.)

The subject of series [2] is NKL (a Natural Killer Cell Lymphoma (NKCL) cell line). The series is described as follows: CellTiter-Glo cell proliferation, NKL cancer cell line. In kind it is cell-based. The procedure:
(§1) CellTiter-Glo® Luminescent cell viability assay (Promega) was used to assess cell survival following treatment with the compounds described herein. Cells were seeded into 384 well plates with the EL406 Combination Washer Dispenser (BioTek Instruments, Inc.), and the compounds were injected into the cells culture media with the JANUS Automated Workstation (PerkinElmer Inc.). Cells were treated with a series diluted inhibitors (20 to 0.04 μM) for 72 hours at 37° C. Luminescent measurement is performed using the 2104 Envision® Multilabel Reader (PerkinElmer Inc.). The cell lines employed include Ba/F3 (a murine interleukin-3 dependent pro-B cell line), NKL (a Natural Killer Cell Lymphoma (NKCL) cell line), CMK (an Acute Megakaryoblastic Leukemia (AMKL) cell line).

For series [3], the system named is CMK (an Acute Megakaryoblastic Leukemia (AMKL) cell line). The series is described as follows: CellTiter-Glo cell proliferation, CMK cancer cell line. In kind it is cell-based. The procedure: as §1
Series [4] in a line: Aqueous solubility. In kind it is physicochemical. Conditions: aqueous medium; at 25° C.
A short description of series [5]: Pharmacokinetics in mouse. It counts as in vivo. The note with it: blood.
In series [6] the test system is IL-4 signaling (JAK3 dependent). The series is described as follows: Profiling on primary immune cells, IL-4 signaling. In kind it is cell-based.
The subject of series [7] is EGFR (T790M) dependent Ba/F3. The series is described as follows: Proliferation of EGFR (T790M) dependent Ba/F3. In kind it is cell-based, murine. Conditions: Mus musculus, BaF3; at 200 nM. The procedure:
as §1

The results in this text go back to patent US10017477B2, “Janus kinase inhibitors and uses thereof” (Dana-Farber Cancer Institute, Inc., priority 2014, dated 2018).

Values joined by “and” are separate entries in the source; they are usually repeats but may differ in a detail not shown here. Equal entries are not always repeated. Where two headings read alike, the source gives them in different places. A value given as a limit tells only on which side of the number the result lay.

As usually defined, the IC50 is the concentration at which inhibition is half-maximal. Usually EC50 stands for the concentration giving half of the maximal effect. Usually solubility stands for the dissolved amount per volume that the medium holds. High values mean a readily soluble substance, low ones a poorly soluble substance. Usually Cmax stands for the peak of the concentration-time curve. For orientation: Tmax means the time at which the peak concentration occurs. In general, bioavailability refers to the share of a dose that reaches the circulation, judged against a reference dose that is usually intravenous. Higher therefore signals good availability. By inhibition is commonly meant the drop in the measured response relative to a control, in per cent. With `C=CC(=O)Nc1cccc(CNc2nc(Nc3ccc(N4CCN(C)CC4)cc3OC)ncc2Cl)c1` [Compound 2, N-(3-(((5-chloro-2-((2-methoxy-4-(4-methylpiperazin-1-yl)phenyl)amino)pyrimidin-4-yl)amino)methyl)phenyl)acrylamide], the GI50 in series [1] (listed as compound 2) stood at 0.06 µM. Further, the GI50 in series [1] is 0.0604 µM and 0.0626 µM. For the same compound, the concentration for half-maximal inhibition (IC50) in series [2] (72 hours, read-out: Cancer cell lines IC50 NKL) was 0.0197 µM. Further, the EC50 in series [2] (IL-2 dependent NKL cell line, read-out: anti-proliferative potency EC50, NKL) was found to be 0.02 µM. Moreover, the IC50 in series [3] (72 hours, read-out: Cancer cell lines IC50 CMK) turned out to be 8.28 µM. The “anti-proliferative potency on AMKL cell line (in words)” value in series [3] (cell line with activating mutation A572V of JAK3) is on record as “doesn't shown anti-proliferative potency”. For the same compound, in series [4], the solubility was above 250 µM. Moreover, in series [5] (PO dose at 10 mg/kg), the Cmax turned out to be 294 ng/mL, the Tmax turned out to be 2 h and the bioavailability came to 23%. Moreover, in series [5] (intravenous dose at 1 mg/kg, read-out: Vdss), the Vd stood at 1.2 L/kg. For the same compound, the “effect on IL-4 signaling” value in series [6] is recorded as “blocks IL-4 signaling”. In series [7], the inhibition at 0.2 µM was above 90%.
